# Results: US20200268705A1, “CABAZITAXEL COMPOSITION FOR INJECTION AND PREPARATION METHOD THEREFOR” (BIKA BIOTECHNOLOGY (GUANGZHOU) CO., LTD., priority 2018, published 2020)
# Tests used:
# [1] = Solubility of cabazitaxel in 40% SBE-β-CD aqueous solution; type: physicochemical; details: found by the present inventors
# From the text: Cyclodextrin, a pharmaceutical excipient, has a hollow hydrophobic, stereoscopic chiral inner cavity; due to its structural characteristic of “inner hydrophobic, external hydrophilic”, it can encapsulate a variety of small organic molecules (substrates) having suitable space size to form a noncovalent host-guest complex (inclusion complex). Its most significant pharmaceutical function is to increase the water solubility of poorly soluble drugs and improve the stability of drugs. For example, the invention application No. CA2900508A1 (US20150325321A1) by Valery Alakhov et al. disclosed a composition comprising cabazitaxel and suifobutyl ether beta cyclodextrin (SBF-β-CD) in a weight ratio of 1:30 to 1:1000. […] Even if it can reach such concentration, it is difficult to prepare a cabazitaxel injection that meets the concentration specifications of commercial preparations.
# [2] = Solubility of cabazitaxel in PEG300/SBE-β-CD/PVPK12/water solution system with additives; type: physicochemical; details: 700 mg/ml PEG300, 290 mg/ml SBE-β-CD, 80 mg/ml PVPK12, water, nitrogen
# From the text: In view of various defects of the prior art, the inventor of the present application breaks through the prejudice of the prior art, conducts reverse experiments on existing knowledge, reduces the amount of cyclodextrin and abandons the use of ethanol having strong stimulation as a solvent and Tween 80 having side effects.
# [3] = cited from earlier work
substance,measurement,setting,value
"(1S,2S,3R,4S,7R,9S,10S,12R,15S)-4-acetyloxy-15-{[(2R,3S)-3-{[(tertbutoxy)carbonylamino]}-2-hydroxy-3-phenylpropanoyl]oxy}-1-hydroxy-9, 12-dimethoxy-10,14,17,17-tetramethyl-11-oxo-6-oxatetracyclo[11.3.1.0^3:10.0^4:7]heptadec-13-ene-2-yl benzoate [cabazitaxel]",solubility of cabazitaxel,[1],about 1 mg/mL
same,solubility of cabazitaxel,[2],≥ 40 mg/mL
same,stability under alkaline conditions,[3]; alkaline conditions,unstable under alkaline conditions
same,solubility in ethanol,[3]; ethanol,soluble in ethanol
same,solubility in water,[3]; water,almost insoluble in water
